{"source": "patent US20020103187A1", "about": "“Compositions and methods for treating superficial fungal infections” (priority 1999, published 2002)", "key": {"[1]": {"test_system": "C. albicans (Has. A)", "experiment": "Sensitivity of fungi to taurolidine, solid medium", "assay_type": "cell-based", "conditions": "Candida albicans"}, "[2]": {"test_system": "C. albicans (I)", "experiment": "Sensitivity of fungi to taurolidine, solid medium", "assay_type": "cell-based", "conditions": "Candida albicans"}, "[3]": {"test_system": "C. albicans (Jones)", "experiment": "Sensitivity of fungi to taurolidine, solid medium", "assay_type": "cell-based", "conditions": "Candida albicans"}, "[4]": {"test_system": "C. albicans (Wilton)", "experiment": "Sensitivity of fungi to taurolidine, solid medium", "assay_type": "cell-based", "conditions": "Candida albicans"}, "[5]": {"test_system": "Aspergillus fumigatus I", "experiment": "Sensitivity of fungi to taurolidine, solid medium", "assay_type": "cell-based"}, "[6]": {"test_system": "Aspergillus fumigatus III", "experiment": "Sensitivity of fungi to taurolidine, solid medium", "assay_type": "cell-based"}, "[7]": {"test_system": "Trichophyton mentagrophytes", "experiment": "Sensitivity of fungi to taurolidine, solid medium", "assay_type": "cell-based"}, "[8]": {"test_system": "Epidermophyton floccosum", "experiment": "Sensitivity of fungi to taurolidine, solid medium", "assay_type": "cell-based"}, "[9]": {"test_system": "Mucor spp. (Lane)", "experiment": "Sensitivity of fungi to taurolidine, solid medium", "assay_type": "cell-based"}, "[10]": {"test_system": "Rhizopus spp.", "experiment": "Sensitivity of fungi to taurolidine, solid medium", "assay_type": "cell-based"}, "[11]": {"test_system": "Sporotrichum schenkii", "experiment": "Sensitivity of fungi to taurolidine, solid medium", "assay_type": "cell-based"}, "[12]": {"test_system": "Cryptococcus neoformans", "experiment": "Sensitivity of fungi to taurolidine, solid medium", "assay_type": "cell-based"}, "[13]": {"test_system": "C. albicans (Has. A)", "experiment": "Sensitivity of fungi to taurolidine, liquid medium", "assay_type": "cell-based", "conditions": "Candida albicans"}, "[14]": {"test_system": "C. albicans (Jones)", "experiment": "Sensitivity of fungi to taurolidine, liquid medium", "assay_type": "cell-based", "conditions": "Candida albicans"}, "[15]": {"test_system": "C. spp.", "experiment": "Sensitivity of fungi to taurolidine, liquid medium", "assay_type": "cell-based"}, "[16]": {"test_system": "C. tropicalis", "experiment": "Sensitivity of fungi to taurolidine, liquid medium", "assay_type": "cell-based", "conditions": "Candida tropicalis"}, "[17]": {"test_system": "Mucor spp. (heavy inoc.)", "experiment": "Sensitivity of fungi to taurolidine, liquid medium", "assay_type": "cell-based"}, "[18]": {"test_system": "Mucor spp. (light inoc.)", "experiment": "Sensitivity of fungi to taurolidine, liquid medium", "assay_type": "cell-based"}, "[19]": {"test_system": "Aspergillus fumigatus", "experiment": "Sensitivity of fungi to taurolidine, liquid medium", "assay_type": "cell-based"}, "[20]": {"test_system": "Trichophyton rubrum", "experiment": "Sensitivity of fungi to taurolidine, liquid medium", "assay_type": "cell-based"}, "[21]": {"test_system": "Candida albicans", "experiment": "Antifungal activity", "assay_type": "cell-based", "conditions": "the exception in the text summary of Table 1"}, "[22]": {"test_system": "bacteria", "experiment": "Antibacterial activity", "assay_type": "cell-based", "conditions": "antifungal activity stated approximately equivalent to it"}, "[23]": {"experiment": "Solubility in aqueous solutions and organic solvents", "assay_type": "physicochemical"}, "[24]": {"experiment": "pH of saturated solution in deionized water", "assay_type": "physicochemical"}, "[25]": {"experiment": "Apparent partition coefficient between octanol and water", "assay_type": "physicochemical", "conditions": "water buffered at pH 7.2"}, "[26]": {"experiment": "Stability in the solid state", "assay_type": "physicochemical", "conditions": "stored at ambient conditions"}, "[27]": {"conditions": "systemic doses exceeding 40 g/day and cumulative doses up to and exceeding 300 g; cited from earlier work"}}}
{"smiles": "O=S1(=O)CCN(CN2CCS(=O)(=O)NC2)CN1", "note": "[Taurolidine, 4,4′-methylenebis(tetrahydro-1,2,4-thiadiazine)1,1,1′,1′,-tetraoxide]", "values": [{"measurement": "MIC", "setting": "[1]", "value": "> 5000", "unit": "µg/mL"}, {"measurement": "MIC", "setting": "[2]", "value": "> 5000", "unit": "µg/mL"}, {"measurement": "MIC", "setting": "[3]", "value": "> 5000", "unit": "µg/mL"}, {"measurement": "MIC", "setting": "[4]", "value": "> 5000", "unit": "µg/mL"}, {"measurement": "MIC", "setting": "[5]", "value": 625, "unit": "µg/mL"}, {"measurement": "MIC", "setting": "[6]", "value": 625, "unit": "µg/mL"}, {"measurement": "MIC", "setting": "[7]", "value": "< 300", "unit": "µg/mL"}, {"measurement": "MIC", "setting": "[8]", "value": "< 300", "unit": "µg/mL"}, {"measurement": "MIC", "setting": "[9]", "value": 625, "unit": "µg/mL"}, {"measurement": "MIC", "setting": "[10]", "value": 625, "unit": "µg/mL"}, {"measurement": "MIC", "setting": "[11]", "value": 625, "unit": "µg/mL"}, {"measurement": "MIC", "setting": "[12]", "value": "< 300", "unit": "µg/mL"}, {"measurement": "MIC", "setting": "[13]", "value": 2500, "unit": "µg/mL"}, {"measurement": "MIC", "setting": "[14]", "value": 5000, "unit": "µg/mL"}, {"measurement": "MIC", "setting": "[15]", "value": 625, "unit": "µg/mL"}, {"measurement": "MIC", "setting": "[16]", "value": 300, "unit": "µg/mL"}, {"measurement": "MIC", "setting": "[17]", "value": 625, "unit": "µg/mL"}, {"measurement": "MIC", "setting": "[18]", "value": 625, "unit": "µg/mL"}, {"measurement": "MIC", "setting": "[19]", "value": 300, "unit": "µg/mL"}, {"measurement": "MIC", "setting": "[20]", "value": 300, "unit": "µg/mL"}, {"measurement": "antifungal activity", "setting": "[21]", "value": "> 5", "unit": "mg/mL"}, {"measurement": "antibacterial activity", "setting": "[22]", "value": "0.3 to 0.6", "unit": "mg/mL"}, {"measurement": "solubility", "setting": "[23]; CHCl3", "value": "insoluble"}, {"measurement": "solubility", "setting": "[23]; Dilute HCl", "value": "soluble"}, {"measurement": "solubility", "setting": "[23]; Dilute NaOH", "value": "soluble"}, {"measurement": "solubility", "setting": "[23]; EtOH", "value": "sparingly soluble"}, {"measurement": "solubility", "setting": "[23]; Water, 20° C.", "value": 1, "unit": "% at 20 °C"}, {"measurement": "pH of a saturated solution", "setting": "[24]", "value": 7.4}, {"measurement": "apparent partition coefficient between octanol and water", "setting": "[25]", "value": "approximately 0.13"}, {"measurement": "stability in the solid state", "setting": "[26]", "value": "acceptable stability"}, {"measurement": "safety and tolerability", "setting": "[27]", "value": "safe and well tolerated"}]}
